Assay results published in patent US12054480B2, “Compounds for treating cannabinoid toxicity and acute cannabinoid overdose” (MAKScientific, LLC, priority 2020, dated 2024).

What was measured:
[1] = cited from earlier work
male CD-1 mice [2] = assay: Reversal of CB1 SPC agonist induced neurotoxicity; format: in vivo, mouse; details: FIGS. 2A-2B; induced by suprapharmacological doses of CB1 SPC agonist AM2201; i.v., 30 min observation
male CD-1 mice [3] = assay: Observation chamber test - CB1 antagonist mediated side effects; format: in vivo, mouse; details: FIG. 1; i.v., 60-minute observation; compared with rimonabant (i.p.)
Protocol: Observation chambers were used to score (count/duration) individual mouse intrinsic behavior. Male CD-1 mice (n=8) were placed in the chambers for 30 minutes to acclimate to the environment. Subjects were dosed i.v with a compound of Formula I-XI along with vehicle control groups and behavior are recorded over a 60-minute period and the results were analyzed. For statistical analysis, measurements were sampled in 5 min bins at the 5-10, 15-20, 25-30, 35-40, 45-50 and 55-60 min time intervals. The scratching response/frequency is defined based on well-established observations. Data was compared with that of rimonabant (i.p). The vehicle control group (vehicle (i.v.)) were included accordingly.

Question: With `CCCCCc1cc(O)c2c(c1)OC(C)(C)[C@@H]1CCC(C)=C[C@@H]21` [THC] as the compound, how does the onset ([1]; humans) read?
Answer: The onset was 30 to 60 min.

Question: And the “time of peak effects” value ([1]; humans)?
Answer: Its value is 2 to 4 h.

Question: What about the “apparent plasma elimination half-life” value ([1]; in some cases) of the same compound?
Answer: Its value is greater than 96 h.

Question: For `CCOC(=O)c1ccc(-c2c(CC)c(C(=O)NN3CCCCC3)nn2-c2ccc(Cl)cc2Cl)cc1` [Compound 1, Ethyl 4-(1-(2,4-Dichlorophenyl)-4-Ethyl-3-(Piperidin-1-Ylcarbamoyl)-1H-Pyrazol-5-Yl)Benzoate], which “neurotoxic effects: convulsions” value (male CD-1 mice [2]) is on record?
Answer: Its value is “blocks”.

Question: What about the “neurotoxic effects: tremors” value (male CD-1 mice [2]) of the same compound?
Answer: Its value is “blocks”.

Question: What about the “side effects (scratching episodes)” value (male CD-1 mice [3]) of the same compound?
Answer: Its value is “lesser side effects (scratching episodes) as compared to rimonabant”.
